“Also recorded” adds a separate entry of the source.
How the values were obtained:
[1] = Competitive equilibration experiments; conditions: 2-MeTHF
Procedure: Relative stability of the anhydrate Forms A, C, H and J was investigated with competitive equilibration experiments.
Relative stability of the anhydrates Forms C, K and L was investigated with competitive equilibration experiments.
Relative stability of the anhydrates Form C and Form P was systematically investigated with competitive equilibration experiments.
About 5 mg of Form C and about 5 mg of Form P were added to 0.25 mL of saturated solutions of selected solvents. Obtained suspensions were stirred at 25° C., 50° C. and 70° C. for 4 days, respectively. Solid parts (wet cakes) were isolated by centrifugation filtration and investigated by XRPD.
About 10 mg of Form C and about 10 mg of Form P were added to 0.5 mL saturated solutions of selected solvents. Obtained suspensions were stirred at 80/C and 90 C, respectively. Solid parts (wet cakes) were be isolated by centrifugation filtration and investigated by XRPD.
About 3 mg of the Form P and 3 mg of the mixture of Form P and Form J were added to 0.2 mL of saturated solutions of selected solvents. Obtained suspensions were stirred at 25° C., 50° C. and 70° C. for 4 days, respectively. Solid parts (wet cakes) were isolated by centrifugation filtration and investigated by XRPD.
About 3 mg of Form P and 3 mg of the physical mixture of Form P and Form R were added to 0.2 mL of saturated solutions of 2-MeTHF. Obtained suspensions were stirred at 25° C., 50° C. and 70° C., respectively. Solid parts (wet cakes) were isolated by centrifugation filtration and investigated by XRPD.
About 1.5 mg of Form P, 1.5 mg of Form X and 1.5 mg Form Y were added to 0.15 mL saturated solution of 2-MeTHF. Obtained suspensions were stirred at 25° C., 50° C. and 70° C., respectively. Solid parts (wet cake) were isolated by centrifugation filtration and investigated by XRPD.

[2] = system: LNCaP cells expressing ARR2PB-FireflyLuc and CMV-RenillaLuc; assay: LNCaP ARR2PB-FireflyLuc reporter assay; assay type: cell-based; conditions: Homo sapiens, +/−0.5 nM DHT, 48 h at 37° C.
Procedure: LNCaP cells expressing ARR2PB-FireflyLuc and CMV-RenillaLuc were treated with indicated concentrations of the test compound, enzalutamide (negative control), or DHT (positive control)+/−0.5 nM DHT for 48 h at 37° C. […] signals were read with the ImageXpress Micro Confocal System. Remaining activity (antagonist mode) was calculated as % Remaining Activity=100×[(Readsample−LCave)/(HCave−LCave)] where HC is cells treated with 0.5 nM DHT only and LC is cells treated with 10 uM enzalutamide+0.5 nM DHT. Activation (agonist mode) was calculated as % Activation=100×[(ReadSample−LCave)/(HCave−LCave)] where HC is cells treated with 1 uM DHT and LC is cells treated with DMSO. Dose response curves and IC50 values were calculated using non-linear regression analysis in XLfit.

[3] = Equilibration with solvents; assay type: physicochemical
Procedure: Obtained suspensions were filtered through a 0.45 μm nylon membrane filter by centrifugation at 14,000 rpm. Solid parts (wet cakes) were investigated by XRPD. For samples with different XRPD patterns, additional analysis including DSC, TGA, ^1H-NMR were performed.
(§1) Obtained suspensions were filtered through a 0.45 μm nylon membrane filter by centrifugation at 14,000 rpm.
as §1

[4] = Exposure to humidity or ambient condition; assay type: physicochemical
[5] = Competitive water activity experiments; conditions: whole range of water activity (0≤a.w.≤1)
[6] = Wet granulation simulation experiments; assay type: physicochemical
Procedure: Water or ethanol was added drop wise to about 10 mg of Form P until the sample is wetted sufficiently. Wet sample was ground gently with in a mortar and a pestle. Post granulation sample was dried under ambient condition for 10 min.
Water or ethanol was added drop wise to about 10 mg of Form C until the sample is wetted sufficiently. Wet sample was ground gently with in a mortar and a pestle. Post granulation sample was dried under ambient condition for 5 min.

[7] = Dry grinding simulation experiments; assay type: physicochemical; conditions: ground manually with mortar and pestle, 5 min
Procedure: About 10 mg of Form P was ground manually with a mortar and a pestle for 1, 3 and 5 minutes.
About 10 mg of Form C was ground manually with a mortar and a pestle for 5 minutes.

[8] = Form conversion kinetics from Form C to Form P; assay type: physicochemical
Procedure: To investigate form conversion kinetics from Form C to Form P, equilibration experiments with Form C in pH 1.2 HCl buffer, 2-MeTHF, heptane and water were conducted. In 2-MeTHF, Form C converted to Form P within 2 h at 25° C. In pH 1.2 HCl buffer, Form C converted to Form P after 31 h at 37° C. In heptane, Form C converted to Form P completely after 1 week at 25° C. In water, Form C converted to Form P completely after 4 days at 25° C.

[9] = Form change on heating, dehydration or desolvation (TGA, DSC, variable temperature XRPD); assay type: physicochemical; conditions: DSC thermogram and VT-XRPD
Procedure: Relative stability of the anhydrates Form R and Form P was investigated by variable temperature XRPD and competitive equilibration experiments.
Relative stability of the anhydrates Form B, Form X, Form Y and Form C was investigated by variable temperature XRPD. Form B converted to Form X, Form Y and Form C after heating to 150° C., 176° C. and 180° C., respectively.

## Cc1nc(-c2c[nH]c3c(C#N)cccc23)cnc1OCC(C)(C)O [3-(5-(2-hydroxy-2-methylpropoxy)-6-methylpyrazin-2-yl)-1H-indole-7-carbonitrile]
[1]; 25° C. for 3 days
  XRPD after competitive equilibration: Form P
[1]; 50° C. for 3 days
  XRPD after competitive equilibration: Form P
[1]; 70° C. for 1 week
  XRPD after competitive equilibration: Form P
[1]; 70° C. for 3 days
  XRPD after competitive equilibration: Form P + one peak
[2]
  IC50: 50 nM

## Cc1nc(-c2c[nH]c3c(C#N)cccc23)cnc1OCC(C)(C)O [Amorphous form, 3-(5-(2-hydroxy-2-methylpropoxy)-6-methylpyrazin-2-yl)-1H-indole-7-carbonitrile]
[3]; 2-MeTHF, 25° C.
  XRPD after equilibration: Form P
[3]; 2-MeTHF/heptane (v:v = 1:1), 25° C.
  XRPD after equilibration: Form P
[3]; 2-MeTHF/heptane (v:v = 3:1), 25° C.
  XRPD after equilibration: Form P
[3]; 2-Propanol, 25° C.
  XRPD after equilibration: Form P
[3]; Acetone, 25° C.
  XRPD after equilibration: Form P
[3]; Acetone/water (v:v = 30:70) a.w. = 0.92, 25° C.
  XRPD after equilibration: Form P
[3]; Acetonitrile, 25° C.
  XRPD after equilibration: Form P
[3]; DMSO/water (v:v = 40:60) a.w. = 0.77, 25° C.
  XRPD after equilibration: Form P
[3]; Ethanol, 25° C.
  XRPD after equilibration: Form P
[3]; Ethanol/water (v:v = 40:60) a.w. = 0.91, 25° C.
  XRPD after equilibration: Form P
[3]; Ethyl acetate, 25° C.
  XRPD after equilibration: Form P
[3]; Isopropyl acetate, 25° C.
  XRPD after equilibration: Form P
[3]; MEK, 25° C.
  XRPD after equilibration: Form P
[3]; MTBE, 25° C.
  XRPD after equilibration: Form P
[3]; Methanol, 25° C.
  XRPD after equilibration: Form B
[3]; THF, 25° C.
  XRPD after equilibration: Form I
[3]; Toluene, 25° C.
  XRPD after equilibration: Form C
[3]; heptane, 25° C.
  XRPD after equilibration: Form C
[3]; pH 1.2 HCl/KCl buffer, 25° C.
  XRPD after equilibration: Form P
[3]; water, 25° C.
  XRPD after equilibration: Form P
[4]; exposure to high humidity
  Form after humidity exposure: crystallized to Form N

## Cc1nc(-c2c[nH]c3c(C#N)cccc23)cnc1OCC(C)(C)O [Form C, 3-(5-(2-hydroxy-2-methylpropoxy)-6-methylpyrazin-2-yl)-1H-indole-7-carbonitrile]
[5]
  Relative stability in water activity experiments: stable
[6]; granulation solvent Ethanol
  Comments (crystallinity): Crystallinity decreased
  XRPD: Form C
[6]; granulation solvent Water
  Comments (crystallinity): Crystallinity decreased slightly
  XRPD: Form C
[7]
  Comments (crystallinity): Crystallinity decreased slightly
  XRPD: Form C
[8]; 2-MeTHF, 25° C.
  Time to conversion to Form P: ≤ 2 h
[8]; heptane, 25° C.
  Time to complete conversion to Form P: 1 week
[8]; pH 1.2 HCl buffer, 37° C.
  Time to conversion to Form P: 31 h
[8]; water, 25° C.
  Time to complete conversion to Form P: 4 days

## Cc1nc(-c2c[nH]c3c(C#N)cccc23)cnc1OCC(C)(C)O [Form K, 3-(5-(2-hydroxy-2-methylpropoxy)-6-methylpyrazin-2-yl)-1H-indole-7-carbonitrile]
[9]
  Form after melting and re-crystallization: converts to Form L
[4]; 25° C./92% RH for 6 days
  Form after humidity exposure: reverts back to Form B; also recorded: converts to hydrate Form B

## Cc1nc(-c2c[nH]c3c(C#N)cccc23)cnc1OCC(C)(C)O [Form V, 3-(5-(2-hydroxy-2-methylpropoxy)-6-methylpyrazin-2-yl)-1H-indole-7-carbonitrile]
[4]; ambient condition (20° C.-27° C., 50% RH-70% RH)
  Time to conversion to Form W: ≤ 12 h

From patent US20250263396A1, “CRYSTALLINE FORMS OF 3-(5-(2-HYDROXY-2- METHYLPROPOXY)-6-METHYPYRAZIN-2-YL)-1H-INDOLE-7-CARBONITRILE” (NIDO BIOSCIENCES, INC., priority 2024, published 2025)
